Source: publication PMC12005787, “Synthetic Lethality of SHP2 and XIAP Suppresses Proliferation and Metastasis in KRAS‐mutant Nonsmall Cell Lung Cancer” (Advanced Science, 2025)

Columns and labels:
[1] = test system: MEK and ERK phosphorylation in NCI‐H2122 and A549 cells; assay: MEK and ERK phosphorylation (western blotting); type: cell-based, human; conditions: 24 h
NCI‐H2122 and A549 cells = assay: Cell scratch and cell migration assays; type: cell-based, human; conditions: 24 h
Procedure: supplies are listed in Supplementary Table S5. The relevant reagents for protein extraction from Escherichia coli are listed in Supplementary Table S6. Inhibitory effects of embelin on KRAS-mutant and wild-type cells are listed in Supplementary Table S7.
For the adherent cell viability assay, cells in the logarithmic growth phase were seeded in 96-well culture plates at a density of 5×103 well-1 and incubated overnight. Diluted compounds or DMSO were added, or specific treatments were incubated at 37 °C and 5% CO2 for 24 h or 48 h. Cell viability was determined using CCK-8 or CellLightTM Cell Viability Assay Kit, according to the manufacturer's protocol. The luminescence signals of the treated samples were normalized to those of the DMSO group.
For spherical cell viability assays, cells in the logarithmic growth phase were inoculated ata density of 4×10^3 well-1 into 96-well spherical cell microplates and incubated at 37 °C, 5% CO2 for 24 h or 48 h. Cell viability was measured using the CellTiter-Glo® Luminescent Cell Viability 3D Cell Viability Assay Kit, according to the manufacturer’s protocol. […]
Finally, the staining results were recorded using an inverted microscope. […]
NCI-H2122 and A549 cells were seeded in six-well plates. […] Finally, the scratch was photographed using an inverted microscope and the wound healing status was recorded. […]

[2] = test system: SHP2 and ERK phosphorylation in KRAS, HRAS and NRAS‐mutant cells; assay: SHP2 and ERK phosphorylation in RAS-mutant cells (western blotting); type: cell-based; conditions: KRAS G12C, G12S, G13D
Procedure: Transwell, and the subsequent experiments were performed as described in Cell migration […]
After given treatment, cells were lysed by ice bath with radio-immunoprecipitation assay (RIPA) buffer containing 1% phenylmethylsulphonyl fluoride (PMSF), and the supernatant was collected by centrifugation, and the protein concentration was subsequently determined using a BCA Protein Assay Kit. Depending on the molecular weight of the proteins, different concentrations of sodium dodecyl-sulfate polyacrylamide gel electrophoresis (SDS-PAGE) separator gels were prepared for protein electrophoresis. Equal amounts of proteins were sampled and subjected to SDS-PAGE gel electrophoresis; at the end of electrophoresis, the proteins were transferred to nitrocellulose (NC) membranes. The NC membrane was blocked with 5% skim milk and covered with a specific primary antibody overnight at 4 °C, in which the primary antibody was diluted at a ratio of 1:500–1:5000. The NC membrane was […]

His‐ΔSHP2 = target: T1, His‐ΔSHP2 (Homo sapiens, UniProt Q06124); assay: Enzymatic inhibition analysis (Michaelis-Menten, Lineweaver-Burk); type: biochemical
T1 construct: His‐ΔSHP2, encompassing the peptide from amino acids 205–593 retaining PTP activity; His; made in house; host or cells: E. coli
T1 sequence (Q06124 205-593): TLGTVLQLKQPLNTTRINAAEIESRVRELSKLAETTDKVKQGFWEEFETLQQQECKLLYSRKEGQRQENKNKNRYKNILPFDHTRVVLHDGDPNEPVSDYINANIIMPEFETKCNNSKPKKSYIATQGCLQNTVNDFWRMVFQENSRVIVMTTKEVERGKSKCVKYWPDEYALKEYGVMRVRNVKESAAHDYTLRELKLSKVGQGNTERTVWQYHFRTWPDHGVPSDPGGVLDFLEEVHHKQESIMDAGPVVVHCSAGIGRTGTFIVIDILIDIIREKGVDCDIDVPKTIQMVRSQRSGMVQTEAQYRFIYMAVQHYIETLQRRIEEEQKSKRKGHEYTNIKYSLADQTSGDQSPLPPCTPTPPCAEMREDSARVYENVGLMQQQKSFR
Procedure: A Michaelis‐Menten model and Lineweaver‐Burk plot of SHP2 inhibition by embelin were established. In brief, enzyme kinetics of SHP2 varied with the concentrations of substrate DiFMUP and embelin, concentrations of embelin were selected at 0, 10, and 20 µM, and concentrations of DiFMUP were selected at 10, 20, 40, 80, and 160 µM. Recombinant His‐ΔSHP2 was preincubated for 30 min with embelin or DMSO at various concentrations in the absence of substrate and then assayed for enzymatic activity at different times as mentioned above.

[3] = embelin 0, 10, 20 µM, DiFMUP 10-160 µM

Row | type of inhibition of SHP2 (His‐ΔSHP2) | Km of ΔSHP2 protein after addition of compound (His‐ΔSHP2; [3]) | Vm of ΔSHP2 protein after addition of compound (His‐ΔSHP2; [3]) | Structure (SMILES) | effect on MEK and ERK phosphorylation [1] | effect on cell mobility / migration (NCI‐H2122 and A549 cells) | effect on SHP2 phosphorylation [2] | effect on downstream ERK phosphorylation [2]
1 | noncompetitive inhibitor | unchanged | decreased | CCCCCCCCCCCC1=C(O)C(=O)C=C(O)C1=O [Embelin] | inhibited MEK and ERK phosphorylation | potently inhibit the migration capabilities | inhibited SHP2 phosphorylation | significantly reduced
2 | – | – | – | CC1(N)CCN(c2cnc(-c3cccc(Cl)c3Cl)c(N)n2)CC1 [SHP099] | did not affect MEK phosphorylation in A549 cells | poor effect on cell mobility | – | –
